In ChEMBL document CHEMBL1129859, “Synthesis and antibacterial activity of (1R, 5R, 6R)-2-tert-butyl-6-(1-hydroxyethyl)penem-3-carboxylic acid” (Bioorg Med Chem Lett, 1997):
Converted amounts (≈) assume the structure as drawn.

Assays:
Enterococcus [1] = test: Tested in vitro for the antibacterial activity against Enterococcus sp. strain X 66; assay type: functional
Enterococcus [2] = test: Tested in vitro for the antibacterial activity against Enterococcus sp. strain 2041; assay type: functional
Staphylococcus aureus [3] = test: Tested in vitro for the antibacterial activity against Staphylococcus aureus strain V 41; assay type: functional
Klebsiella [4] = test: Tested in vitro for the antibacterial activity against Klebsiella sp. strain X 68; assay type: functional
Staphylococcus aureus [5] = test: Tested in vitro for the antibacterial activity against Staphylococcus aureus strain X 1.1; assay type: functional
Enterobacter cloacae [6] = test: Tested in vitro for the antibacterial activity against Enterobacter cloacae strain EB 5; assay type: functional
Morganella morganii = test: Tested in vitro for the antibacterial activity against Morganella morganii strain PR 15; assay type: functional
Enterobacter cloacae [7] = test: Tested in vitro for the antibacterial activity against Enterobacter cloacae strain 265 A; assay type: functional
[8] = system: Staphylococcus epidermidis; test: Tested in vitro for the antibacterial activity against Staphylococcus epidermidis strain 270; assay type: functional
Acinetobacter = test: Tested in vitro for the antibacterial activity against Acinetobacter sp. strain AC 12; assay type: functional
[9] = system: Staphylococcus epidermidis; test: Tested in vitro for the antibacterial activity against Staphylococcus epidermidis strain 222; assay type: functional
Streptococcus pyogenes = test: Tested in vitro for the antibacterial activity against Streptococcus pyogenes strain C 203; assay type: functional
Serratia marcescens [10] = test: Tested in vitro for the antibacterial activity against Serratia marcescens strain X 99; assay type: functional
Haemophilus influenzae [11] = test: Tested in vitro for the antibacterial activity against Haemophilus influenzae (b-lac+) strain 76; assay type: functional
Escherichia coli [12] = test: Tested in vitro for the beta lactamase inhibition of Escherichia coli TEM; assay type: functional
Staphylococcus aureus [13] = test: Tested in vitro for the antibacterial activity against Staphylococcus aureus strain X 400; assay type: functional
Escherichia coli [14] = test: Tested in vitro for the antibacterial activity against Escherichia coli strain N 10; assay type: functional
Providencia stuartii [15] = test: Tested in vitro for the antibacterial activity against Providencia stuartii strain PR 33; assay type: functional
Staphylococcus aureus [16] = test: Tested in vitro for the antibacterial activity against Staphylococcus aureus strain S 13 E; assay type: functional
Klebsiella aerogenes [17] = test: Tested in vitro for the antibacterial activity against Enterobacter aerogenes strain C 32; assay type: functional
Providencia rettgeri = test: Tested in vitro for the antibacterial activity against Providencia rettgeri strain C 24; assay type: functional
Citrobacter freundii [18] = test: Tested in vitro for the antibacterial activity against Citrobacter freundii strain CF 17; assay type: functional
Klebsiella aerogenes [19] = test: Tested in vitro for the antibacterial activity against Enterobacter aerogenes strain EB 17; assay type: functional
Klebsiella [20] = test: Tested in vitro for the antibacterial activity against Klebsiella sp. strain X 26; assay type: functional
Serratia marcescens [21] = test: Tested in vitro for the antibacterial activity against Serratia marcescens strain SE 3; assay type: functional
Enterobacter cloacae [22] = test: Tested in vitro for the beta lactamase inhibition of Enterobacter cloacae; assay type: functional, organism-based
Streptococcus pneumoniae = test: Tested in vitro for the antibacterial activity against Streptococcus pneumoniae strain Park I; assay type: functional
Shigella sonnei = test: Tested in vitro for the antibacterial activity against Shigella sonnei strain N 9; assay type: functional
Salmonella [23] = test: Tested in vitro for the antibacterial activity against Salmonella sp. strain 1335; assay type: functional
Salmonella [24] = test: Tested in vitro for the antibacterial activity against Salmonella sp. strain X 514; assay type: functional
Escherichia coli [25] = test: Tested in vitro for the antibacterial activity against Escherichia coli strain EC 14; assay type: functional
Escherichia coli [26] = test: Tested in vitro for the antibacterial activity against Escherichia coli strain TEM; assay type: functional
Haemophilus influenzae [27] = test: Tested in vitro for the antibacterial activity against Haemophilus influenzae (b-lac-) strain CL; assay type: functional
Klebsiella [28] = test: Tested in vitro for the antibacterial activity against Klebsiella sp. strain KAE; assay type: functional
[29] = Half-life was determined; assay type: ADME; conditions: human
Providencia stuartii [30] = test: […] Tested in vitro for the antibacterial activity against Providencia stuartii strain PR 33; assay type: functional
Citrobacter freundii [31] = test: Tested in vitro for the antibacterial activity against Citrobacter freundii strain CF17; assay type: functional

Structure (SMILES): C[C@@H](O)[C@H]1C(=O)N2C(C(=O)[O-])=C(C(C)(C)C)O[C@H]12.[K+]
- MIC (Enterococcus [1]): 2 µg/mL
- MIC (Enterococcus [2]): 16 µg/mL
- MIC (Staphylococcus aureus [3]): 1 µg/mL
- MIC (Klebsiella [4]): 2 µg/mL
- MIC (Staphylococcus aureus [5]): 0.25 µg/mL
- MIC (Enterobacter cloacae [6]): 32 µg/mL
- MIC (Morganella morganii): 8 µg/mL
- MIC (Enterobacter cloacae [7]): 32 µg/mL
- MIC [8]: 4 µg/mL
- MIC (Acinetobacter): 8 µg/mL
- MIC [9]: 0.25 µg/mL
- MIC (Streptococcus pyogenes): 0.06 µg/mL
- MIC (Serratia marcescens [10]): 16 µg/mL
- MIC (Haemophilus influenzae [11]): 0.5 µg/mL
- IC50 (Escherichia coli [12]): 3 µM
- MIC (Staphylococcus aureus [13]): 2 µg/mL
- MIC (Escherichia coli [14]): 4 µg/mL
- MIC (Providencia stuartii [15]): 4 µg/mL
- MIC (Staphylococcus aureus [16]): 1 µg/mL
- MIC (Klebsiella aerogenes [17]): 8 µg/mL
- MIC (Providencia rettgeri): 4 µg/mL
- MIC (Citrobacter freundii [18]): 16 µg/mL
- MIC (Klebsiella aerogenes [19]): 32 µg/mL
- MIC (Klebsiella [20]): 1 µg/mL
- MIC (Serratia marcescens [21]): 64 µg/mL
- IC50 (Enterobacter cloacae [22]): 0.002 µM
- MIC (Streptococcus pneumoniae): 0.03 µg/mL
- MIC (Shigella sonnei): 4 µg/mL
- MIC (Salmonella [23]): 4 µg/mL
- MIC (Salmonella [24]): 1 µg/mL
- MIC (Escherichia coli [25]): 4 µg/mL
- MIC (Escherichia coli [26]): 4 µg/mL
- MIC (Haemophilus influenzae [27]): 0.5 µg/mL
- MIC (Klebsiella [28]): 4 µg/mL

Structure (SMILES): C[C@@H](O)[C@H]1C(=O)N2C(C(=O)[O-])=C(C(C)(C)C)S[C@H]12.[K+]
- MIC (Enterococcus [1]): 16 µg/mL
- MIC (Enterococcus [2]): 32 µg/mL
- MIC (Staphylococcus aureus [3]): 1 µg/mL
- MIC (Klebsiella [4]): 64 µg/mL
- MIC (Staphylococcus aureus [5]): 0.5 µg/mL
- MIC (Enterobacter cloacae [6]): 128 µg/mL
- MIC (Morganella morganii): 32 µg/mL
- MIC (Enterobacter cloacae [7]): 128 µg/mL
- MIC [8]: 0.5 µg/mL
- MIC (Acinetobacter): 16 µg/mL
- MIC [9]: 2 µg/mL
- MIC (Streptococcus pyogenes): 0.12 µg/mL
- MIC (Serratia marcescens [10]): 128 µg/mL
- MIC (Haemophilus influenzae [11]): 8 µg/mL
- IC50 (Escherichia coli [12]): 0.05 µM
- MIC (Staphylococcus aureus [13]): 4 µg/mL
- MIC (Escherichia coli [14]): 64 µg/mL
- MIC (Providencia stuartii [15]): 32 µg/mL
- MIC (Staphylococcus aureus [16]): 4 µg/mL
- MIC (Klebsiella aerogenes [17]): 128 µg/mL
- MIC (Providencia rettgeri): 8 µg/mL
- MIC (Citrobacter freundii [18]): 128 µg/mL
- MIC (Klebsiella aerogenes [19]): 128 µg/mL
- half-life [29]: 16 days
- MIC (Klebsiella [20]): 8 µg/mL
- MIC (Serratia marcescens [21]): 128 µg/mL
- IC50 (Enterobacter cloacae [22]): 0.3 µM
- MIC (Streptococcus pneumoniae): 0.12 µg/mL
- MIC (Shigella sonnei): 64 µg/mL
- MIC (Salmonella [23]): 128 µg/mL
- MIC (Salmonella [24]): 32 µg/mL
- MIC (Escherichia coli [25]): 128 µg/mL
- MIC (Escherichia coli [26]): 128 µg/mL
- MIC (Haemophilus influenzae [27]): 8 µg/mL
- MIC (Klebsiella [28]): 64 µg/mL

Structure (SMILES): CC(C)(O/N=C(\C(=O)N[C@@H]1C(=O)N2C(C(=O)[O-])=C(C[n+]3ccccc3)CS[C@H]12)c1csc(N)n1)C(=O)O [CEFTAZIDIME]
- MIC (Enterococcus [1]): 128 µg/mL (≈ 234 µM)
- MIC (Enterococcus [2]): 16 µg/mL (≈ 29.3 µM)
- MIC (Providencia stuartii [30]): 0.06 µg/mL (≈ 0.11 µM)
- MIC (Staphylococcus aureus [3]): 8 µg/mL (≈ 14.6 µM)
- MIC (Klebsiella [4]): 0.12 µg/mL (≈ 0.22 µM)
- MIC (Staphylococcus aureus [5]): 8 µg/mL (≈ 14.6 µM)
- MIC (Enterobacter cloacae [6]): 0.12 µg/mL (≈ 0.22 µM)
- MIC (Morganella morganii): 0.25 µg/mL (≈ 0.457 µM)
- MIC (Enterobacter cloacae [7]): 32 µg/mL (≈ 58.5 µM)
- MIC [8]: 16 µg/mL (≈ 29.3 µM)
- MIC (Acinetobacter): 1 µg/mL (≈ 1.83 µM)
- MIC [9]: 16 µg/mL (≈ 29.3 µM)
- MIC (Streptococcus pyogenes): 0.06 µg/mL (≈ 0.11 µM)
- MIC (Serratia marcescens [10]): 0.12 µg/mL (≈ 0.22 µM)
- MIC (Haemophilus influenzae [11]): 0.03 µg/mL (≈ 0.0549 µM)
- MIC (Staphylococcus aureus [13]): 64 µg/mL (≈ 117 µM)
- MIC (Escherichia coli [14]): 0.06 µg/mL (≈ 0.11 µM)
- MIC (Staphylococcus aureus [16]): 64 µg/mL (≈ 117 µM)
- MIC (Klebsiella aerogenes [17]): 2 µg/mL (≈ 3.66 µM)
- MIC (Providencia rettgeri): 0.03 µg/mL (≈ 0.0549 µM)
- MIC (Klebsiella aerogenes [19]): 0.12 µg/mL (≈ 0.22 µM)
- MIC (Klebsiella [20]): 0.06 µg/mL (≈ 0.11 µM)
- MIC (Serratia marcescens [21]): 0.06 µg/mL (≈ 0.11 µM)
- MIC (Streptococcus pneumoniae): 0.03 µg/mL (≈ 0.0549 µM)
- MIC (Shigella sonnei): 0.03 µg/mL (≈ 0.0549 µM)
- MIC (Salmonella [23]): 0.25 µg/mL (≈ 0.457 µM)
- MIC (Salmonella [24]): 0.06 µg/mL (≈ 0.11 µM)
- MIC (Escherichia coli [25]): 0.03 µg/mL (≈ 0.0549 µM)
- MIC (Escherichia coli [26]): 0.03 µg/mL (≈ 0.0549 µM)
- MIC (Haemophilus influenzae [27]): 0.06 µg/mL (≈ 0.11 µM)
- MIC (Citrobacter freundii [31]): 0.5 µg/mL (≈ 0.915 µM)
- MIC (Klebsiella [28]): 0.5 µg/mL (≈ 0.915 µM)

Structure (SMILES): O=C(O)[C@H]1/C(=C/CO)O[C@@H]2CC(=O)N21 [CLAVULANIC ACID]
- IC50 (Escherichia coli [12]): 0.04 µM
- IC50 (Enterobacter cloacae [22]): 100 µM
